Results taken from ChEMBL document CHEMBL1201862, “PubChem BioAssay data set” (2004).
The source made the active and inactive calls.

How the values were obtained:
fMet-Leu-Phe receptor = target: T1, fMet-Leu-Phe receptor (Homo sapiens, UniProt P21462); test: FPR ligands, dose response (AID 519); type: functional
T1 sequence (P21462 whole entry): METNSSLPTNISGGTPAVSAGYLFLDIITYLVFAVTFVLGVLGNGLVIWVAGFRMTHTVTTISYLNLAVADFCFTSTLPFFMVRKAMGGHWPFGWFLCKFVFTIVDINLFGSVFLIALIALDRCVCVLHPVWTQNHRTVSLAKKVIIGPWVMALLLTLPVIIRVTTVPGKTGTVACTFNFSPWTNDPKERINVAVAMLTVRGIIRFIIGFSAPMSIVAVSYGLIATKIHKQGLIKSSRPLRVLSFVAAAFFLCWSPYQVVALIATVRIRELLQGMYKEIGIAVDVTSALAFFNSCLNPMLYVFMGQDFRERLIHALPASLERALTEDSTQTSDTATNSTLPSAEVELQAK

[1] = target: T2, Oxysterols receptor LXR-beta (Homo sapiens, UniProt P55055); type: functional, cell-based;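 note: agonist activity at LXR measured by a cell-based luminescence readout across a dose range, run as a counterscreen for daf-12 agonists; HEK293 cells with Gal4-LXR fusion and GAL4-driven luciferase reporter; potency for activation of Gal4-LXR reporter so compounds are agonists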
T2 sequence (P55055 whole entry): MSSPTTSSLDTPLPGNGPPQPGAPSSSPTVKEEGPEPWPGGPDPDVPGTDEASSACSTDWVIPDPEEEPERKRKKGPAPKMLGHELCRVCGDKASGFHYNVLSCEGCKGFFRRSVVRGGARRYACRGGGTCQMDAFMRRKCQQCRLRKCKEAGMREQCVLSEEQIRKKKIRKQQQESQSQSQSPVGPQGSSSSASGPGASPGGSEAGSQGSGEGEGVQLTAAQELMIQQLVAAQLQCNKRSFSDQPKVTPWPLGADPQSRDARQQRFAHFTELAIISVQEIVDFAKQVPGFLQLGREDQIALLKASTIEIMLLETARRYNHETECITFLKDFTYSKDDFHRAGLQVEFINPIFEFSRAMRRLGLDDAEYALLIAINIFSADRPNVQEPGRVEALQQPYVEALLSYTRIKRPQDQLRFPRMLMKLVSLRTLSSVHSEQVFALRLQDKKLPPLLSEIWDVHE

[2] = Shn3 3'UTR reporter inhibitors, dose response, cell-based, Clone20 osteoblasts, firefly luciferase, cherry-picked (AID 624132); type: functional;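 note: firefly luciferase luminescence from reporter carrying the Shn3 3'UTR in osteoblasts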
[3] = HepG2 cell cytotoxicity, dose response, cytotoxicity control for Shn3 inhibitor project, CellTiter-Glo, cherry-picked (AID 624134); type: functional, cell-based
Protein Wnt-3a = Protein Wnt-3a (Mus musculus, UniProt P27467); test: Wnt3a-driven reporter signaling inhibition, dose response, selectivity assay for Gli-SUFU antagonist project, Wnt-LIGHT cells, luminescence (AID 651570); type: functional; details: read-out: IC50_Mean;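 note: Wnt-LIGHT reporter cells stimulated with conditioned medium from Wnt3a-producing cells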
[4] = target: T3, COUP transcription factor 2 (Homo sapiens, UniProt P24468); test: Luminescence-based cell-based high throughput dose response assay to identify inhibitors of COUP-TFII (NR2F2).; type: functional;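 note: HEK293 cells transiently cotransfected with COUP-TFII expression vector and reporter; luciferase reporter luminescence driven by COUP-TFII from the pX2-168 reporter plasmid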
T3 sequence (P24468 whole entry): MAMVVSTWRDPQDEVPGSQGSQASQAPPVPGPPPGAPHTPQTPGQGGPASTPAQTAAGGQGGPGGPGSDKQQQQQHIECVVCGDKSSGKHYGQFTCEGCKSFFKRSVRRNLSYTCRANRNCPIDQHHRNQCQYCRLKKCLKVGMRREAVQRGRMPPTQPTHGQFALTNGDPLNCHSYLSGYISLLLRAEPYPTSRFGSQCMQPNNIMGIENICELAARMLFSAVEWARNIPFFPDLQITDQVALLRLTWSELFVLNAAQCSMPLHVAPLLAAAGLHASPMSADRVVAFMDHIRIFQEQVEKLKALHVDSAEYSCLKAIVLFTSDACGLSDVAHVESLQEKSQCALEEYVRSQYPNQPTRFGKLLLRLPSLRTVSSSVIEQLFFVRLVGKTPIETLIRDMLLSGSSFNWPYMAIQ

[5] = target: Disintegrin and metalloproteinase domain-containing protein 17 (Homo sapiens, UniProt P78536); test: ADAM17 protease inhibitors, dose response, counter-screen for ADAM10 exosite inhibitor project, biochemical, quenched FRET substrate (AID 743253)
[6] = target: T4, RNA-binding protein pos-1 (Caenorhabditis elegans, UniProt G5EF15); test: inhibitors of POS-1/mex-3 RNA binding, dose response, biochemical, fluorescence polarization (AID 1964);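 note: purified POS-1 fused to maltose binding protein made in E. coli; potency of compounds blocking POS-1 binding to fluorescent RNA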
T4 sequence (G5EF15 whole entry): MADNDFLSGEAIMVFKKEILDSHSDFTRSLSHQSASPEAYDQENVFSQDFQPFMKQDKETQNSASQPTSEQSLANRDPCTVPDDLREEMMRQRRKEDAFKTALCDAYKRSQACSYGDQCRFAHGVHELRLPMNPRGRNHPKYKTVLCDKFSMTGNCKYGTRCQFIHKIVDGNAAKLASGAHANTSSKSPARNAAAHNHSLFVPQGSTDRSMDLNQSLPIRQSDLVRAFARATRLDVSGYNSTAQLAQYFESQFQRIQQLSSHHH

[7] = target: T5, Zinc finger protein mex-5 (Caenorhabditis elegans, UniProt Q9XUB2); test: MEX-5/TCR-2 RNA interaction inhibitors, dose response, biochemical, C. elegans, fluorescence polarization (AID 1960)
T5 sequence (Q9XUB2 whole entry): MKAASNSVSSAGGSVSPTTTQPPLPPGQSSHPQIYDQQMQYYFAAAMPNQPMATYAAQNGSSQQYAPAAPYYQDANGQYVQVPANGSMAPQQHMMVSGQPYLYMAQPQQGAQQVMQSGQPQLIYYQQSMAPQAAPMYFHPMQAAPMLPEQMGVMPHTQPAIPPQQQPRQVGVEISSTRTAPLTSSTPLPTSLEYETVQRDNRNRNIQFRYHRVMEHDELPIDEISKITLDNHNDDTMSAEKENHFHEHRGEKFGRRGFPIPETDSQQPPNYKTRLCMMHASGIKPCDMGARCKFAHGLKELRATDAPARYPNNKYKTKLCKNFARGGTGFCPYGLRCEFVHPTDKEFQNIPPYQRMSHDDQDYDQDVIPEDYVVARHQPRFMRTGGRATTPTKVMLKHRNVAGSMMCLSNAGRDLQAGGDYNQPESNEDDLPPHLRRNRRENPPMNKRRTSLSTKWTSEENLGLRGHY

[8] = target: T6, Sentrin-specific protease 1 (Homo sapiens, UniProt Q9P0U3); test: Dose response confirmation of small molecule inhibitors of the catalytic domain of the SUMO protease, SENP1 in a FRET assay.; type: functional; details: read-out: IC50_Mean
T6 sequence (Q9P0U3 whole entry): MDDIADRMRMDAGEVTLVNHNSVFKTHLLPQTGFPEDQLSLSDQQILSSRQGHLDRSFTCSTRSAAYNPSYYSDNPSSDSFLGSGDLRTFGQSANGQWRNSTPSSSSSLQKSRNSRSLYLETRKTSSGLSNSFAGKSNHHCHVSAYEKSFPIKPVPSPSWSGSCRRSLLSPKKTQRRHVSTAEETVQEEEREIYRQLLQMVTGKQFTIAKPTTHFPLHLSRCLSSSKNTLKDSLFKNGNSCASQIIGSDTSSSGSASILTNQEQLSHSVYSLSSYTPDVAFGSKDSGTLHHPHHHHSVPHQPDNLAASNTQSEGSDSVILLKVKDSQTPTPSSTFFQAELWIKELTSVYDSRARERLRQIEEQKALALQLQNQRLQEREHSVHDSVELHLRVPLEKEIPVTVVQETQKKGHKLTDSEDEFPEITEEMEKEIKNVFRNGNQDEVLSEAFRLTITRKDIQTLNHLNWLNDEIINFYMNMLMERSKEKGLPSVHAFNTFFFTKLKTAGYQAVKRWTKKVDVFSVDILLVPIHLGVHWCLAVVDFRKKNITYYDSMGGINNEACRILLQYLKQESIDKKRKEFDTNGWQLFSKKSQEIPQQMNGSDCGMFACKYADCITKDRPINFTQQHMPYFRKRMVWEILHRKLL

Beta-galactosidase = Beta-galactosidase (Escherichia coli, UniProt Q8VNN2); test: Dose response counterscreen for EBI2 assay utilizing the enzyme, b-galactosidase.; type: functional
[9] = Luminescence Cell-Based Dose Retest to Confirm Inhibitors of Cancer Stem Cells. [Related pubchem assays (depositor defined):AID2717, AID2721]; type: functional; details: Homo sapiens
INS1 = test: beta cell apoptosis inhibitors, cytokine rescue, dose response, luminescence, retest (AID 449756); type: functional, cell-based; details: Rattus norvegicus;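 note: cell death triggered by IL-1 beta plus TNF-alpha plus IFN-gamma mixture; protective hits raise ATP signal compared with cytokine alone wells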
[10] = control 3'UTR Renilla luciferase suppression, dose response, counter-screen for Shn3 inhibitor project, cell-based, Clone20-Shn3RL, cherry-picked (AID 624133); type: functional
[11] = A549 cell cytotoxicity, dose response, cytotoxicity control, plate reader, cherry-pick, antagonist series (AID 743412); type: functional, cell-based
[12] = LGR2 antagonists, dose response, cell-based, HEK293, CRE-luciferase reporter, cherry pick, set 2 (AID 743343); type: functional;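 note: transfected cells were stimulated with diluted bursicon conditioned medium after compound addition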
[13] = MC4R antagonists, dose response, counter-screen for LGR2 antagonist project, cell-based, plate reader, cherry pick (AID 743444); type: functional;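 note: transfected HEK 293 cells stimulated with alpha-MSH peptide; potency of inhibitors of the alpha-MSH evoked signal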
[14] = HEK293 cell cytotoxicity, dose response, cytotoxicity control, plate reader, cherry-picked samples (AID 743446); type: functional, cell-based
[15] = target: T7, Long-chain-fatty-acid--AMP ligase FadD28 (Mycobacterium tuberculosis, UniProt P9WQ59); test: Fluorescence polarization aasay to screen for inhibitors that compete for the binding of FadD28 to a bisubstrate Measured in Biochemical System Using Plate Reader - 2147-01_Inhibitor_Dose_CherryPick_Activity.; type: functional, Mycobacterium tuberculosis H37Rv
T7 sequence (P9WQ59 whole entry): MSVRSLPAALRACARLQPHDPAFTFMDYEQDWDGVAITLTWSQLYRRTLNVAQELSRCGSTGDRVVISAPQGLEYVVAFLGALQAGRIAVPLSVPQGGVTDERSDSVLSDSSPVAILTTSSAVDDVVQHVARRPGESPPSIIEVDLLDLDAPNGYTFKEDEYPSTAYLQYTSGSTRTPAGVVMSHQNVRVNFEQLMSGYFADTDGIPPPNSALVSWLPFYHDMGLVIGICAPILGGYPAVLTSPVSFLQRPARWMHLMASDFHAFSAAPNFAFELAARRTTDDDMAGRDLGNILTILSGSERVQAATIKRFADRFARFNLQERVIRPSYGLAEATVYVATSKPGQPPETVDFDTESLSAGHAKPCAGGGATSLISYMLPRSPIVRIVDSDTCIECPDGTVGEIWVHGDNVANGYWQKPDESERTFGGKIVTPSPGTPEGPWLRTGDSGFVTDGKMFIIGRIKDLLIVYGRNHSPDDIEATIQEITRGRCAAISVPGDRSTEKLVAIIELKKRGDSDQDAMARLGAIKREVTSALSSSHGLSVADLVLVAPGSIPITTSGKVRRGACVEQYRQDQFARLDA

[16] = inhibitors of firefly luciferase expression or activity, dose response, H4 neuroglioma cells, luminescence (AID 1990); type: functional, cell-based
[17] = Luminescence Cell-Based Dose Response HTS to Identify Inhibitors of 5'UTR Stem-Loop Driven Prion Protein mRNA Translation in H4 Neuroglioblastoma Cells. [Related pubchem assays: 1827 (Project Summary), 1813 (Primary HTS)]; type: functional
[18] = inhibitors of SNCA 5'UTR-driven reporter translation, confirmation, H4 neuroglioma cells, luminescence (AID 1988); type: functional, cell-based
[19] = target: T8, Ubiquitin-conjugating enzyme E2 N (Homo sapiens, UniProt P61088); type: functional;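 note: Dose-response confirmation in a TR-FRET assay detecting UBC13-driven polyubiquitin chain formation, inhibition measured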
T8 sequence (P61088 whole entry): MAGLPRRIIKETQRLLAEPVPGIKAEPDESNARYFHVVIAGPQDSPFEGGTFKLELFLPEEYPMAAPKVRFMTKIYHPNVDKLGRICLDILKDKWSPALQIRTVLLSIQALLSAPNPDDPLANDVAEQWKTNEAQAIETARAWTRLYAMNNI

Paired box protein Pax-8 = Paired box protein Pax-8 (Homo sapiens, UniProt Q06710); test: inhibitors of PAX8-driven TPO luciferase reporter, dose response, RMG-I cells, cherry-pick (AID 687027); type: functional, cell-based;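 note: luciferase reporter driven by Pax8 target thyroperoxidase promoter measured by SteadyGlo luminescence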
[20] = non-specific cell cytotoxicity, dose response, cytotoxicity control for PAX8 inhibitor project, plate reader, dry powder samples (AID 743021); type: functional, cell-based

Sequence of Beta-galactosidase (Q8VNN2 whole entry): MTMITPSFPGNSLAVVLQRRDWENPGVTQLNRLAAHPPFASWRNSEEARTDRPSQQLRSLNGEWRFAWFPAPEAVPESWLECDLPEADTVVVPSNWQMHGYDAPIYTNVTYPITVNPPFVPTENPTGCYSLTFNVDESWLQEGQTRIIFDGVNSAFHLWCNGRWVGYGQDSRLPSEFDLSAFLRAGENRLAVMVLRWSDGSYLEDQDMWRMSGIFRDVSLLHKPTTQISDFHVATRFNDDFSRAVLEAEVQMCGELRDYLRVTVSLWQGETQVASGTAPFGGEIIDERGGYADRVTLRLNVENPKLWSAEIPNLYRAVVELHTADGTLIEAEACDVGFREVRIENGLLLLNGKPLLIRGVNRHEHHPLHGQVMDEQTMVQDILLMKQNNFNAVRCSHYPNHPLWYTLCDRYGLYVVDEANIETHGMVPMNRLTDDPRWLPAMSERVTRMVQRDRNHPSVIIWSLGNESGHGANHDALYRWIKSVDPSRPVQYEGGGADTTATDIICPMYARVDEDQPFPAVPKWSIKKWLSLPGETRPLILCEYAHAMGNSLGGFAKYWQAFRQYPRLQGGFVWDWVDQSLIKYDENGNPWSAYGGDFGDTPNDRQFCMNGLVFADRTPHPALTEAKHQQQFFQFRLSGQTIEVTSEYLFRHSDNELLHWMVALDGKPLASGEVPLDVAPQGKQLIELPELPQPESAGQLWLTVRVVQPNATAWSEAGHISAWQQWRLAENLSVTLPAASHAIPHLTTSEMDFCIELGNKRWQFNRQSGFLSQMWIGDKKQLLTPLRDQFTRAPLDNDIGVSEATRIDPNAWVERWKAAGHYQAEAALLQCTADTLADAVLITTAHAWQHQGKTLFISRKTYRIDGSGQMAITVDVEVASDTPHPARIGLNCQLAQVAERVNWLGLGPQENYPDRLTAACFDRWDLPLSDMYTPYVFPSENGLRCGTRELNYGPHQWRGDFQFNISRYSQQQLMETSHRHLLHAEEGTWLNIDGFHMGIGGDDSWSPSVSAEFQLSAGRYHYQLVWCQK
Sequence of Paired box protein Pax-8 (Q06710 whole entry): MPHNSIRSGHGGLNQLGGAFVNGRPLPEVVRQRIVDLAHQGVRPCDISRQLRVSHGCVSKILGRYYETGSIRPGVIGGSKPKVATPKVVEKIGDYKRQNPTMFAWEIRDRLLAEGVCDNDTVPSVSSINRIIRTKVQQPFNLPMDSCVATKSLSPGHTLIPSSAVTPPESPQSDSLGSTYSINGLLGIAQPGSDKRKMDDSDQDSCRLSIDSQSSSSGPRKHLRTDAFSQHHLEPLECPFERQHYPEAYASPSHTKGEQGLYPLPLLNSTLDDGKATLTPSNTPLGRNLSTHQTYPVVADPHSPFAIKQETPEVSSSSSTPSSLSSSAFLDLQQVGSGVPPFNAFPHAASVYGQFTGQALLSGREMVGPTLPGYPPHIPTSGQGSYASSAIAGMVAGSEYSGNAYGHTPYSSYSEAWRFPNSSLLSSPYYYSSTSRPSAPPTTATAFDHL
Sequence of Protein Wnt-3a (P27467 whole entry): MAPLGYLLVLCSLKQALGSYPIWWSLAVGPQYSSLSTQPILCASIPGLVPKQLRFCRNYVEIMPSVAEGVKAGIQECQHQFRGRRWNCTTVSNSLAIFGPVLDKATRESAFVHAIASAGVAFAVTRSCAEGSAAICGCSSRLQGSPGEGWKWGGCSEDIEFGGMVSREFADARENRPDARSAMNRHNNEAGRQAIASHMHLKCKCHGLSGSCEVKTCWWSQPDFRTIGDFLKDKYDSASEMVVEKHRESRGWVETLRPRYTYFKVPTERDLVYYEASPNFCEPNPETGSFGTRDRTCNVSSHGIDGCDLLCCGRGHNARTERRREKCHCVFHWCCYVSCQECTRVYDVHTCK
Sequence of Disintegrin and metalloproteinase domain-containing protein 17 (P78536 whole entry, the tested form may be a part): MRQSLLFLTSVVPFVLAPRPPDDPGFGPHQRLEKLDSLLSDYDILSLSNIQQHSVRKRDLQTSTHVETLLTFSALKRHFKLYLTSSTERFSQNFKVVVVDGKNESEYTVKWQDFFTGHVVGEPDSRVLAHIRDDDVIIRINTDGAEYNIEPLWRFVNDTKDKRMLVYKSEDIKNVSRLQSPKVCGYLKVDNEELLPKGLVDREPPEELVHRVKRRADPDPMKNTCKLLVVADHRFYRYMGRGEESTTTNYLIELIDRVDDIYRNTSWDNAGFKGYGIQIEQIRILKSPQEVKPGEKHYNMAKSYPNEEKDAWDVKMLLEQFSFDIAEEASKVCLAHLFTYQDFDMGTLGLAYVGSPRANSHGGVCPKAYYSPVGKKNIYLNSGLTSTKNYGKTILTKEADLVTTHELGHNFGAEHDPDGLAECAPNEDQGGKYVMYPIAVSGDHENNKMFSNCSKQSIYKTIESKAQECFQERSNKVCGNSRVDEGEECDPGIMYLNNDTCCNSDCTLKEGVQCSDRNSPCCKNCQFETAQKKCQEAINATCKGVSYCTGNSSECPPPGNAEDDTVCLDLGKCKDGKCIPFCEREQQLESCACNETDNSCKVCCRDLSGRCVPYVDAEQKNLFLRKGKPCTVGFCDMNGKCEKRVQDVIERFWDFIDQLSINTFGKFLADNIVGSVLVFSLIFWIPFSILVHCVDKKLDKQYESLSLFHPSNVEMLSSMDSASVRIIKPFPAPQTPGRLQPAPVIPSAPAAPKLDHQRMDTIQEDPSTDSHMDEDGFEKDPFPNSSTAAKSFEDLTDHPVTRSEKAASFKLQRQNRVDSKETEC

O=C(C1=C(O)C(=O)N(c2ncccn2)C1c1ccc(Cl)c(Cl)c1)c1ccco1 (stereo unspecified)
Ki (fMet-Leu-Phe receptor): > 66.7 µM (inactive)

CC(=Nc1ccc(Cl)cc1N)c1c(O)cc(C)oc1=O
EC50 [1]: > 67.6 µM (inactive)

CC(=O)c1cccc(NS(=O)(=O)c2ccc(-c3cnc(C4CC4)o3)cc2)c1
AC50 [2]: 5 µM (active) | AC50 [3]: 47.3 µM (active) | IC50 (Protein Wnt-3a): 6.03 µM (active) | IC50 [4]: 12.3 µM (inactive)

COc1ccc(-c2ccc(-c3noc(-c4cccc(OC)c4)n3)c(OC)n2)cc1
IC50 [5]: > 69.5 µM (inactive)

O=C(c1ccccc1)[C@@H]1[C@@H]2C(=O)N(c3ccc(F)cc3)C(=O)[C@@H]2C2CCCN21 (stereo partly specified)
EC50 [6]: 37.9 µM (active) | EC50 [7]: 40.9 µM (active) | IC50 [8]: 7.78 µM (active)

Cc1occc1-c1nnc(SCC(=O)NCCc2ccccc2)n1Cc1ccccc1
IC50 (Beta-galactosidase): > 80 µM (inactive)

Oc1ccc(CCNc2ncnc3ccc(Cl)cc23)cc1
AC50 [9]: 1.57 µM (active) | AC50 (INS1): 3.73 µM (active) | AC50 [2]: 0.551 µM (active) | AC50 [3]: 43 µM (active) | AC50 [10]: 942 nM (active) | IC50 [4]: 5.5 µM (active)

c1ccc(CCSc2nccn2-c2ccccc2)cc1
EC50 [1]: > 67.6 µM (inactive)

Cc1cccc(-c2ccc([C@H]3[C@@H](CO)N4CCCCN(C(=O)c5ccncc5)C[C@@H]34)cc2)c1
AC50 [11]: > 52 µM (inactive) | AC50 [12]: 8.82 µM (active) | AC50 [13]: 9.6 µM (active) | AC50 [14]: > 52 µM (inactive)

CN(C)CCNc1ncnc2c1ncn2[C@H]1CN(Cc2cccnc2)C[C@@H](CO)O1
EC50 [1]: > 67.5 µM (inactive)

O=C(N/N=C/c1c[nH]c2ccccc12)c1cc(Cl)ccc1O
AC50 [15]: 9.8 µM (active)

COC(=O)c1[nH]c(C)c(C(=O)C2=C(O)C(=O)N(CCN3CCOCC3)C2c2cccnc2)c1C (stereo unspecified)
Ki (fMet-Leu-Phe receptor): 20.8 µM (inactive)

CCC[C@H](CN[C@@H](CNC)[C@H](C)CC)NCCc1cc(C(F)(F)F)cc(C(F)(F)F)c1
EC50 [16]: 8.3 µM (active) | EC50 [17]: 9.67 µM (active) | EC50 [18]: 7.09 µM (active) | IC50 [19]: > 20 µM (inactive) | AC50 (Paired box protein Pax-8): 9.95 µM (active) | AC50 [20]: 22.1 µM (active)
